# Test results: ChEMBL document CHEMBL1938271, “Dimeric ent-kaurane diterpenoids from Isodon excisus” (J Nat Prod, 2011)
# System: RAW264.7
# Assay: Antiinflammatory activity in mouse RAW264.7 cells assessed as inhibition of LPS-stimulated nitric oxide production
# Assay type: functional, cell-based
row,SMILES,IC50 [µM]
1,CC(=O)O[C@H]1C[C@H]2C[C@@]3(C[C@H](O)[C@@H]4C(C)(C)[C@@H](OC(C)=O)C[C@H](O)[C@@]4(C)[C@H]13)C(=O)[C@]2(O)CC[C@@]1(O)C(=O)[C@]23C[C@@H]1C[C@H](O)[C@H]2[C@]1(C)[C@@H](OC(C)=O)C[C@H](OC(C)=O)C(C)(C)[C@H]1[C@@H](O)C3 (relative stereo),> 50
2,CC(=O)O[C@H]1C[C@H]2C[C@@]3(C[C@H](O)[C@@H]4C(C)(C)[C@@H](OC(C)=O)C[C@H](O)[C@@]4(C)[C@H]13)C(=O)[C@]21CCC2=C(O1)[C@]13C[C@@H]2C[C@H](OC(C)=O)[C@H]1[C@@]1(C)[C@H]([C@@H](O)C3)C(C)(C)[C@@H](OC(C)=O)C[C@@H]1O (relative stereo),> 50
3,CC(=O)O[C@H]1C[C@H]2C[C@@]3(C[C@H](O)[C@@H]4C(C)(C)[C@@H](OC(C)=O)C[C@H](O)[C@@]4(C)[C@H]13)C(=O)O[C@]1(CCC2=O)C(=O)[C@]23C[C@@H]1C[C@H](OC(C)=O)[C@H]2[C@@]1(C)[C@H]([C@@H](O)C3)C(C)(C)[C@@H](OC(C)=O)C[C@@H]1O (relative stereo),> 50
4,CC(=O)O[C@H]1C[C@H]2C[C@@]3(CC(=O)[C@@H]4C(C)(C)[C@@H](OC(C)=O)C[C@H](O)[C@@]4(C)[C@H]13)C(=O)[C@]21CCC(=O)[C@H]2C[C@H](OC(C)=O)[C@@H]3[C@](C2)(C[C@H](O)[C@@H]2C(C)(C)[C@@H](OC(C)=O)C[C@H](O)[C@]23C)C(=O)O1 (relative stereo),> 50
5,CC(=O)O[C@H]1C[C@H]2C[C@@]3(CC(=O)[C@@H]4C(C)(C)[C@@H](OC(C)=O)C[C@H](O)[C@@]4(C)[C@H]13)C(=O)O[C@]1(CCC2=O)C(=O)[C@]23C[C@@H]1C[C@H](OC(C)=O)[C@H]2[C@@]1(C)[C@H]([C@@H](O)C3)C(C)(C)[C@@H](OC(C)=O)C[C@@H]1O (relative stereo),> 50
6,N=C(N)NN [PIMAGEDINE],27.5
